Broadly, the Ki is a dissociation constant, usually derived from enzyme kinetics or from competition with a known ligand. The Km is the substrate concentration at which the rate is half of its maximum.

This is an account of results in patent publication US10154673B2, “Method of removing lactose from a solution” (Stellenbosch University, priority 2014, dated 2018).

The nature of data set [1]: Adsorption of β-gal onto Dynabeads (HIPD), BCA protein determination. The data set is classed as binding. Particulars: room temperature, optimal concentration. The method, then: To determine the amount (μg) of β-gal that was bound to Dynabeads® (HIPD), a BCA protein assay was performed according to the manufacturer's protocol. A standard curve with BSA was established in a range from 0 to 2 mg/ml. The analysis was performed at 540 nm.
A dilution series of purified β-gal wildtype and E537D mutant was prepared in a concentration range from 0 to 0.4 mg/ml. The dilution series was incubated with the beads (25 μl) for 10 min at 25° C. according to the manufacturer's protocol to ensure optimal adsorption of β-gal onto the beads. The beads were subsequently separated from the solution with a magnet and the supernatant was removed and analysed as described immediately above. The beads were then washed three times in dialysis buffer and the supernatant of the wash steps were also analysed for protein content.
The experimental procedure described above was repeated at 4 and 37° C.
Purified β-gal (wildtype and E537D mutant), was incubated with the beads (25 μl) at room temperature and optimal concentration to ensure maximum binding. The supernatant was removed from the solution at regular time intervals for 10 min. The collected fractions were assayed for protein content as described above. Analysis of β-gal bound to the beads took place with SDS-PAGE and Western blot analyses as outlined above.

The nature of data set [2]: Competitive activity assay (lactose as inhibitor, ONPG as substrate). The data set is classed as biochemical. Particulars: for Vmax: ONPG with lactose 6, 16 and 60 mM as competitive inhibitor; for Ki: competitive inhibition by lactose, ONPG as substrate. The method, then:
The protocol for the above activity assay was repeated, but with the addition of lactose as an inhibitor. Lactose was added to final concentration of 6, 16 and 60 mM respectively.
The assay for the activity of β-gal, with lactose as substrate, is relatively complex and generally requires the use of HPLC. It was therefore decided to use a competitive activity assay instead. Lactose was therefore added together with ONPG to determine if the expressed enzymes did have an affinity for the natural substrate. Lactose would compete for the active site with ONPG and therefore the greater the inhibition the higher the affinity of lactose for that particular active site.
The results obtained were analysed with the aid of Michaelis Menten plots and the Ki values for lactose were determined using Graphpad Prism® version 5 for Windows, Graphpad Software, La Jolla Calif. USA.

A short description of data set [3]: ONPG activity assay of purified free β-gal. The data set is classed as biochemical. Conditions: for Vmax / Km: free enzyme. How it is done:
(§1) Purified β-gal was assayed using a colorimetric activity assay. Both enzymes were assayed at varying substrate concentrations. The assay took place in phosphate buffer (93 mM Sodium phosphate, 1 mM MgCl2, 112 mM β-mercaptoethanol, pH 7.3) with varying amounts of substrate concentration. The assay was performed in a BioTek® PowerWave 340 spectrophotometer at 37° C. for 5 min with a reading taken every 5 s. The buffers were preincubated at 37° C. for 30 min prior to the assay.
The activity needed to be determined for both the wildtype and E537D mutant β-gal prepared for this study, since the addition of the His-tag could influence enzyme activity. The activity of β-gal was determined using the ONPG activity assay. The kinetic parameters (Km and Vmax) were determined using the Michaelis Menten equation and Graphpad Prism® version 5 software for Windows, Graphpad Software, La Jolla Calif. USA.

Data set [4] is described as follows: Radioactive lactose binding assay (scintillation counting). Conditions: 0.2 nmol β-gal/mg beads, 0.2 nmol 14C lactose, 5 min. How it is done: Immobilised β-gal (Wildtype and E537D mutant) (0.2 nmol β-gal/mg beads) was incubated with 0.2 nmol ^14C lactose in buffer (500 mM NaPO4, 300 mM NaCl, 5 mM sodium metabisulphate, 0.2% tween20, pH 8) for 5 min. The immobilised β-gal was then removed from the ^14C lactose solution with a magnet. The original 0.2 nmol C14 solution and the residual supernatant from the binding experiment were analysed with a scintillation counter.

A short description of data set [5]: Partition HPLC analysis of the 14C lactose binding assay. Conditions: for hydrolysis of lactose during the binding experiment: binding assay supernatant, glucose peak at 4 min. The method, then:
[…] The immobilised β-gal was then removed from the ^14C lactose solution with a magnet. The original 0.2 nmol C14 solution and the residual supernatant from the binding experiment were analysed with a scintillation counter.
All HPLC analyses were carried out using a Carbohydrate Analysis column (Waters (WAT084038)) and a Radiomatic “Flo-one beta” A-100 radioactive flow detector at ambient temperature. An isochratic mixture of 20:80 water:acetonitrile was used as mobile phase at a flow rate of 2 ml/min. Scintillation fluid was pumped at 6 ml/min for radioactive detection. Retention times of ^14C glucose and ^14C lactose standards were determined separately. This was followed by analysis of the residual supernatant and original ^14C lactose solution from the lactose binding assay.

A short description of data set [6]: ONPG activity assay of immobilised wildtype β-gal. It counts as biochemical. Particulars: immobilised on Dynabeads, ONPG as substrate. The method, then: as §1
70 μg β-gal (both E537D mutant and wildtype) were incubated for 10 min at 25° C. on a Vortex Genie 2 mixer (Healthcare technologies, South Africa) with 25 μl Dyanbeads® (HIPD). The immobilised β-gal was collected with the use of a magnet and the residual supernatant was removed for protein analysis. The beads were then washed three times and the wash supernatant was also kept and analysed for protein content.
The activity of the immobilized wildtype β-gal was determined with an ONPG activity assay as described earlier.

Take “wildtype β-gal: N-terminal His-tagged wildtype E. coli β-galactosidase (lacZ product), expressed and IMAC purified [reference compound]”: the “incubation time for maximum adsorption” value in data set [1] is 5 min. The Vmax amounted to 230 µmol/min/mg in data set [2]; 230 µmol/min/mg in data set [3] (ONPG as substrate); 230 μmol/min/mg protein in data set [3] (ONPG as substrate, 37° C.). For the same substance, affinity in data set [2] was put at a Ki of 12.4 mM. Further, the Km in data set [3] (ONPG as substrate, 37° C.) amounted to 220 µM.
Consider “immobilised wildtype β-gal: His-tagged wildtype β-gal immobilised on Dynabeads (HIPD) cobalt magnetic beads”, for which the “percentage binding of 14C lactose from solution” value (shortened to “percentage binding”) in data set [4] is given as “not able to bind lactose”. For the same substance, the “percentage binding” value in data set [4] (listed as immobilised wildtype enzyme) is “approximately 2%”. The “hydrolysis of lactose during the binding experiment” value in data set [5] is reported as “hydrolysed the lactose completely”. Also, in data set [6], the Km was 1530 µM and the Vmax worked out at 135 µmol/min/mg.
For “immobilised E537D mutant β-gal: His-tagged E537D mutant β-gal immobilised on Dynabeads (HIPD) cobalt magnetic beads”, the “percentage binding” value in data set [4] is listed as “approximately 15%”. The “hydrolysis of lactose during the binding experiment” value in data set [5] is listed as “the lactose had not been hydrolysed”. The “hydrolysis of lactose to glucose” value in data set [5] (incubation 20 min) is listed as “relatively small glucose peak appeared”; in data set [5] (incubation an hour (60 min)), “glucose peak had increased significantly”; in data set [5] (incubation three hours), “majority of the substrate had been converted to glucose”.
As for “E537D mutant: N-terminal His-tagged E. coli β-galactosidase with Glu537 replaced by Asp”, the “incubation time for maximum adsorption” value in data set [1] stood at 5 min. In data set [2], the Vmax was determined as 2 µmol/min/mg and affinity was put at a Ki of 19 mM. The “activity lower/slower than the wildtype β-gal” value in data set [3] (ONPG activity, Vmax ratio) is 115 ×. Besides, the Vmax in data set [3] (ONPG as substrate (FIG. 19 B legend)) amounted to 2 μmol/min/protein. Also, in data set [3] (ONPG as substrate, 37° C.), the Km came to 270 µM and the Vmax amounted to 2 μmol/min/mg protein.
